Measured values published in article PMC4685510, “A Cell Biologist’s Field Guide to Aurora Kinase Inhibitors” (Frontiers in Oncology, 2015).
Like-named read-outs stand apart in the source and are kept apart here.

Key:
Test in all cases: biochemical
Type in all cases: biochemical
[1] = molecular target: 363 human kinases (including Aurora A/B/C) (Homo sapiens, UniProt Q9Y243); details: AKT3, [ATP] 50 µM; for remaining activity at 0.1 µM: 100 nM; for remaining activity at 0.1 µM / remaining activity at 0.5 µM: read-out: % Enzyme Activity (relative to DMSO controls)
363 human kinases (including Aurora A/B/C) (Homo sapiens, UniProt Q9Y243), sequence (Q9Y243 whole entry): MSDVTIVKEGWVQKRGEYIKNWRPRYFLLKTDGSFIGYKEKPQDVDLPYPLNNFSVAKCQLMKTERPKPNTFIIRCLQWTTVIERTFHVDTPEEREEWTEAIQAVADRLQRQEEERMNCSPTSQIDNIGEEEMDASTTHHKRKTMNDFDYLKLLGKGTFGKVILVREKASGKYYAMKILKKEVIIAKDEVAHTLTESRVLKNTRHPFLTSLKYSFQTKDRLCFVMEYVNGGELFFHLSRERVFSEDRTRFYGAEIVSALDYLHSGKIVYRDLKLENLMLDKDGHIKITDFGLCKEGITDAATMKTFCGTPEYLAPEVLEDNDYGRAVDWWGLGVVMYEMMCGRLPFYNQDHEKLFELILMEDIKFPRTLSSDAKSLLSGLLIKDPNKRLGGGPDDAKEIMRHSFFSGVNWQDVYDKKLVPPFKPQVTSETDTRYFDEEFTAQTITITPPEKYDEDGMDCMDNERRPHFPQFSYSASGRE
Excerpt: (§1) However, the Aurora A/B selectivity ratios derived from our in vitro and in vivo data can be compared to prioritize inhibitors.

[2] = molecular target: 363 human kinases (including Aurora A/B/C) (Homo sapiens, UniProt P49841); details: GSK3b; for remaining activity at 0.1 µM: 100 nM; for remaining activity at 0.1 µM / remaining activity at 0.5 µM: read-out: % Enzyme Activity (relative to DMSO controls)
363 human kinases (including Aurora A/B/C) (Homo sapiens, UniProt P49841), sequence (P49841 whole entry): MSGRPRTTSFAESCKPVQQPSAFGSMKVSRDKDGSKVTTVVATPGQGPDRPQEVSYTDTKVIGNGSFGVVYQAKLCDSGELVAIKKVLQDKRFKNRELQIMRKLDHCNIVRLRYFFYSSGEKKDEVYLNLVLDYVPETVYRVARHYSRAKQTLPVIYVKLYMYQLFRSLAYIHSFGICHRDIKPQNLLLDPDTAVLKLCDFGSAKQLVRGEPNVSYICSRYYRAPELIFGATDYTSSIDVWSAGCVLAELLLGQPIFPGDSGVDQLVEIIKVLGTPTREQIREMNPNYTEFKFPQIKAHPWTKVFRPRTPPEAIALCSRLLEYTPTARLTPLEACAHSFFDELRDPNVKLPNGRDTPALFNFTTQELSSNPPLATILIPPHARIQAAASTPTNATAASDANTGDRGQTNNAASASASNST
Excerpt: as §1

[3] = molecular target: T1, 363 human kinases (including Aurora A/B/C) (Homo sapiens, UniProt Q14164); details: for remaining activity at 0.1 µM: 100 nM
T1 sequence (Q14164 1-716): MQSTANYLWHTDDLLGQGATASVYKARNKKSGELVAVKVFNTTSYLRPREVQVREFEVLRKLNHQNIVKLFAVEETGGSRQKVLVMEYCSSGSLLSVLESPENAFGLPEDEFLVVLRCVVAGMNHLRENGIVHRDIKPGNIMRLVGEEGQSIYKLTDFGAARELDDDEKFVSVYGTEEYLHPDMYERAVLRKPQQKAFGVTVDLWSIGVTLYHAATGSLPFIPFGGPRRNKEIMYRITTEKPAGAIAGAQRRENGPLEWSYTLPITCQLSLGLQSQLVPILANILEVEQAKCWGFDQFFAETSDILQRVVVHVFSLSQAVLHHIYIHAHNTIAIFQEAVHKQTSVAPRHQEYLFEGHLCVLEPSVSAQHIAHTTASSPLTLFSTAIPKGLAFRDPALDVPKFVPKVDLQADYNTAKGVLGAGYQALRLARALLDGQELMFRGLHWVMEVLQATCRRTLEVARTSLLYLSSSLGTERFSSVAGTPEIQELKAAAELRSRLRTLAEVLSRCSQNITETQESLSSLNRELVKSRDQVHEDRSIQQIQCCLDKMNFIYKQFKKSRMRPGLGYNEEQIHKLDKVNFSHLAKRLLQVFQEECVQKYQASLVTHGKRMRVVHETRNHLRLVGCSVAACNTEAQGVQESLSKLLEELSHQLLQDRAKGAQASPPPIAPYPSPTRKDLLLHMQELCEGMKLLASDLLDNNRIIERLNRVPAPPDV
Excerpt: as §1

[4] = molecular target: 363 human kinases (including Aurora A/B/C) (Homo sapiens, UniProt Q9HBH9); details: MNK2; for remaining activity at 0.1 µM: 100 nM; for remaining activity at 0.1 µM / remaining activity at 0.5 µM: read-out: % Enzyme Activity (relative to DMSO controls)
363 human kinases (including Aurora A/B/C) (Homo sapiens, UniProt Q9HBH9), sequence (Q9HBH9 whole entry): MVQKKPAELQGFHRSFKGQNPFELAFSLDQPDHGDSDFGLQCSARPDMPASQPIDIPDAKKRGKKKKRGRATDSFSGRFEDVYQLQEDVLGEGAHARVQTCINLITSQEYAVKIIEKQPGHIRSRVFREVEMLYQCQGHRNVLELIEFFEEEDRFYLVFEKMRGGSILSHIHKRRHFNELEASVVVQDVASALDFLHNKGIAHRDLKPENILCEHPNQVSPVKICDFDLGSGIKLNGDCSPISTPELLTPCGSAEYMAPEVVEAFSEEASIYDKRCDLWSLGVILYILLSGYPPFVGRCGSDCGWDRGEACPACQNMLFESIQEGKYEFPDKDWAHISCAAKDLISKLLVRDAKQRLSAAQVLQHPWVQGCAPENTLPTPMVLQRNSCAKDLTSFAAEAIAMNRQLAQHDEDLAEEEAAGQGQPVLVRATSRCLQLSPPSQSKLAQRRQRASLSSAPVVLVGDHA
Excerpt: as §1

[5] = molecular target: 363 human kinases (including Aurora A/B/C) (Homo sapiens, UniProt P22694); details: PKAcb; for remaining activity at 0.1 µM: 100 nM; for remaining activity at 0.1 µM / remaining activity at 0.5 µM: read-out: % Enzyme Activity (relative to DMSO controls)
Excerpt: as §1

[6] = molecular target: T2, 363 human kinases (including Aurora A/B/C) (Homo sapiens, UniProt Q96BR1); details: SGK3/SGKL; for remaining activity at 0.1 µM: 100 nM; for remaining activity at 0.1 µM / remaining activity at 0.5 µM: read-out: % Enzyme Activity (relative to DMSO controls)
T2 sequence (Q96BR1 1-496): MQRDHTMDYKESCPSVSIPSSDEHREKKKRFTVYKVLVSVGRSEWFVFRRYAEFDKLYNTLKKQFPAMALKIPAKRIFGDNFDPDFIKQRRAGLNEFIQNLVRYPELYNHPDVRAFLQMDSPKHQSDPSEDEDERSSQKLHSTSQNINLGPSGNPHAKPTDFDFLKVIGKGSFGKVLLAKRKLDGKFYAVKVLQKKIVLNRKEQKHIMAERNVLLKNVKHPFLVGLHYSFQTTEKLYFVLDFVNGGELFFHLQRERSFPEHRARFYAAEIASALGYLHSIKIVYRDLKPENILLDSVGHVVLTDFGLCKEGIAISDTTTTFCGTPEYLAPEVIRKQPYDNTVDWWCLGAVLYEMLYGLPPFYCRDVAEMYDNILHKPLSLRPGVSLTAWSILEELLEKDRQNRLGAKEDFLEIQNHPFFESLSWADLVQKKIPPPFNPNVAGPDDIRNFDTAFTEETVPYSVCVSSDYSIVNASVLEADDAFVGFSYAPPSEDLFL
Excerpt: as §1

[7] = molecular target: T3, 363 human kinases (including Aurora A/B/C) (Homo sapiens, UniProt Q8TD08); details: ERK7/MAPK15, [ATP] 10 µM; for remaining activity at 0.1 µM: 100 nM; for remaining activity at 0.1 µM / remaining activity at 0.5 µM: read-out: % Enzyme Activity (relative to DMSO controls)
T3 sequence (Q8TD08 1-544): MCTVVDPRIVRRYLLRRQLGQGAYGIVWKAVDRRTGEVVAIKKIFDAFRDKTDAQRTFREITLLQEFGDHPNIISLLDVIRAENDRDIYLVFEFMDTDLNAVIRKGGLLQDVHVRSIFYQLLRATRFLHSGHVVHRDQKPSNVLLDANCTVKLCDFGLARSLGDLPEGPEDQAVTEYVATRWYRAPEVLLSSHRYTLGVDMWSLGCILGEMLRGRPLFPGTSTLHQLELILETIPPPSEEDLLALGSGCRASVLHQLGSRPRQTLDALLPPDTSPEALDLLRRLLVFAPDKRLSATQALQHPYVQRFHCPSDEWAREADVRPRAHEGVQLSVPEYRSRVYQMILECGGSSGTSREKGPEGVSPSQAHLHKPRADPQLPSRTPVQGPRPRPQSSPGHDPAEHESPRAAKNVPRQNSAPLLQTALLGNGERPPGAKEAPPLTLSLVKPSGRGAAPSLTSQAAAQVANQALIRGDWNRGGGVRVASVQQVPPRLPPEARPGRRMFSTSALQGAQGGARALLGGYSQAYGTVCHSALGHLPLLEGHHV
Excerpt: as §1

[8] = molecular target: 363 human kinases (including Aurora A/B/C) (Homo sapiens, UniProt Q9NYL2); details: ZAK/MLTK; for remaining activity at 0.1 µM: 100 nM; for remaining activity at 0.1 µM / remaining activity at 0.5 µM: read-out: % Enzyme Activity (relative to DMSO controls)
363 human kinases (including Aurora A/B/C) (Homo sapiens, UniProt Q9NYL2), sequence (Q9NYL2 whole entry): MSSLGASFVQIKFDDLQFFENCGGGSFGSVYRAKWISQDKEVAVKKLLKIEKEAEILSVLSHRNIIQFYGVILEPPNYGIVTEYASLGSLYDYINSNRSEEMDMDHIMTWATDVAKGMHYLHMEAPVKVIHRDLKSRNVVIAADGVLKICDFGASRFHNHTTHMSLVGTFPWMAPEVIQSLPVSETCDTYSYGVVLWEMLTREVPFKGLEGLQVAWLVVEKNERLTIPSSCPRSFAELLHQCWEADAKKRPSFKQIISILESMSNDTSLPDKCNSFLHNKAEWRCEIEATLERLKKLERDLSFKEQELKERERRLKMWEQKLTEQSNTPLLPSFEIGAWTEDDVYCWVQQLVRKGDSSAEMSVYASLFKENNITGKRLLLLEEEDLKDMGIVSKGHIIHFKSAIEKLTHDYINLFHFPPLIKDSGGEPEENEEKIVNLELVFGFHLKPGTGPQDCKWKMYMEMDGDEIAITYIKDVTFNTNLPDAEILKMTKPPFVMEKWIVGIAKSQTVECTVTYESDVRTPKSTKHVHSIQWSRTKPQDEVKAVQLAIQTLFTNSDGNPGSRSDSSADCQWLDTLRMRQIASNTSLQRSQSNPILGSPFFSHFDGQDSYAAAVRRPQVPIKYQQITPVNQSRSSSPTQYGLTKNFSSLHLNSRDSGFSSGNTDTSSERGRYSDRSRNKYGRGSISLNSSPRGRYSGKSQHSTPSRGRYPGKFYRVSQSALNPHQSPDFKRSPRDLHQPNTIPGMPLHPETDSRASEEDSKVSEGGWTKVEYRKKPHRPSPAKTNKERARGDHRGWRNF
Excerpt: as §1

[9] = IKKe/IKBKE, 500 nM, read-out: % Enzyme Activity (relative to DMSO controls)

SMILES | remaining activity at 0.1 µM [1] | remaining activity at 0.1 µM [2] | remaining activity at 0.1 µM [4] | remaining activity at 0.1 µM [5] | remaining activity at 0.1 µM [6] | remaining activity at 0.1 µM [7] | remaining activity at 0.1 µM [8] | remaining activity at 0.5 µM ([1]; 500 nM) | remaining activity at 0.5 µM ([2]; 500 nM) | remaining activity at 0.5 µM [3, 9] | remaining activity at 0.5 µM ([4]; 500 nM) | remaining activity at 0.5 µM ([5]; 500 nM) | remaining activity at 0.5 µM ([6]; 500 nM) | remaining activity at 0.5 µM ([7]; 500 nM) | remaining activity at 0.5 µM ([8]; 500 nM) | also measured
CCn1cc(-c2ccnc3[nH]c(-c4cccc(CN(C)C)c4)cc23)c(-c2ccc(NC(=O)N(C)C)cc2)n1 [GSK1070916] | 94.8% | 102% | 96.9% | 98% | 105% | 102% | 101% | – | – | – | – | – | – | – | – | remaining activity at 0.1 µM ([3]; read-out: % Enzyme Activity (relative to DMSO controls), IKKe/IKBKE): 84.4%
O=C(O)[C@]1(Cc2cccc(Nc3nccs3)n2)CC[C@@H](Oc2cccc(Cl)c2F)CC1 [MK-5108] | 97.4% | 37.7% | 105% | 97.1% | 106% | 83.7% | 126% | 99.1% | 6.95% | 80.6% | 95% | 98.5% | 105% | 64.2% | 97.9% | remaining activity at 0.1 µM ([3]; IKKe/IKBKE, read-out: % Enzyme Activity (relative to DMSO controls)): 98.3%
O=C(c1cccc(Cl)c1F)N1CCN(Cc2cccc(Nc3nccs3)n2)CC1 [MK-8745] | – | – | – | – | – | – | – | 98.6% | 29.6% | 92.2% | 97.9% | 99.5% | 99.7% | 92.2% | 91.9% | % Enzyme Activity (relative to DMSO controls) ([1]; 500 nM): 98.52%; % Enzyme Activity (relative to DMSO controls) ([2]; 500 nM): 28.78%; % Enzyme Activity (relative to DMSO controls) ([3]; IKKe/IKBKE, 500 nM): 89.47%; % Enzyme Activity (relative to DMSO controls) ([4]; 500 nM): 97.70%; % Enzyme Activity (relative to DMSO controls) ([5]; 500 nM): 99.52%; % Enzyme Activity (relative to DMSO controls) ([6]; 500 nM): 98.27%; % Enzyme Activity (relative to DMSO controls) ([7]; 500 nM): 85.14%; % Enzyme Activity (relative to DMSO controls) ([8]; 500 nM): 91.42%
